Test results published in ChEMBL document CHEMBL2331210, “New 2-benzylsulfanyl-nicotinic acid based 1,3,4-oxadiazoles: their synthesis and biological evaluation” (2013).
In brackets after ≈: the same amount, converted by molar mass.

Legend:
Type in all cases: functional
[1] = system: Aspergillus niger; assay: Antimicrobial activity against Aspergillus niger MTCC 282 assessed as growth inhibition measured after overnight incubation by broth dilution method
[2] = system: Mycobacterium tuberculosis; assay: Antitubercular activity against Mycobacterium tuberculosis H37Rv assessed as growth inhibition after 12 to 28 days by L.J. agar MIC method; conditions: for MIC: Mycobacterium tuberculosis, H37Rv
[3] = system: Pseudomonas aeruginosa; assay: Antimicrobial activity against Pseudomonas aeruginosa MTCC 2488 assessed as growth inhibition measured after overnight incubation by broth dilution method
[4] = system: Candida albicans; assay: Antimicrobial activity against Candida albicans MTCC 227 assessed as growth inhibition measured after overnight incubation by broth dilution method
[5] = system: Staphylococcus aureus; assay: Antimicrobial activity against Staphylococcus aureus MTCC 96 assessed as growth inhibition measured after overnight incubation by broth dilution method
[6] = system: Escherichia coli; assay: Antimicrobial activity against Escherichia coli MTCC 443 assessed as growth inhibition measured after overnight incubation by broth dilution method
[7] = system: Streptococcus pyogenes; assay: Antimicrobial activity against Streptococcus pyogenes MTCC 442 assessed as growth inhibition measured after overnight incubation by broth dilution method
[8] = system: Aspergillus clavatus; assay: Antimicrobial activity against Aspergillus clavatus MTCC 1323 assessed as growth inhibition measured after overnight incubation by broth dilution method

For `N#CSc1ccc2nc(NC(=O)CSc3nnc(-c4cccnc4SCc4ccccc4)o3)sc2c1`, the MIC [1] was 100 µg/mL (≈ 182 µM), the “growth inhibition (GI)” value [2] was 99% and the MIC [2] was 50 µg/mL (≈ 91.1 µM). The MIC [3] was 62.5 µg/mL (≈ 114 µM), the MIC [4] was 500 µg/mL (≈ 911 µM) and the MIC [5] was 250 µg/mL (≈ 456 µM). The MIC [6] was 250 µg/mL (≈ 456 µM), the MIC [7] was 12.5 µg/mL (≈ 22.8 µM) and the MIC [8] was 250 µg/mL (≈ 456 µM).
With `CCOC(=O)CSc1nnc(-c2cccnc2SCc2ccccc2)o1` the MIC [1] was 1000 µg/mL (≈ 2580 µM), the “growth inhibition (GI)” value [2] was 98% and the MIC [2] was 100 µg/mL (≈ 258 µM). The MIC [3] was 200 µg/mL (≈ 516 µM), the MIC [4] was 1000 µg/mL (≈ 2580 µM) and the MIC [5] was 500 µg/mL (≈ 1290 µM). The MIC [6] was 500 µg/mL (≈ 1290 µM), the MIC [7] was 125 µg/mL (≈ 323 µM) and the MIC [8] was 1000 µg/mL (≈ 2580 µM).
